Experimental data as given in patent publication US8921307B2, “Synthetic linear apelin mimetics for the treatment of heart failure” (priority 2012, dated 2014).
Where a SMILES comes first, the peptide text is derived from it. [ ]: non-standard residue; d: D form. pGlu = O=C1CC[C@@H](C(=O)O)N1; dNle = CCCC[C@@H](N)C(=O)O; Nle = CCCC[C@H](N)C(=O)O; Aib = CC(C)(N)C(=O)O

What was measured:
[1] = Surrogate Activity-Based Plasma Stability Assay; assay type: in vitro ADME; conditions: rat, Surrogate activity-based Plasma stability t½
Procedure: Stability half-life was then calculated by the formula, t½=0.693÷k Surrogate Activity-Based Plasma Stability Assay: […]
2) Calculate slope of value above and […]

hAPJ = target: T1, hAPJ (Homo sapiens, UniProt P35414); assay: hAPJ Calcium Flux Assay; assay type: cell-based; conditions: Chem-5 APJ stable cells, FLIPR calcium flux stimulation; read-out: hAPJ Ca^2+ Flux EC50
T1 sequence (P35414 1-380): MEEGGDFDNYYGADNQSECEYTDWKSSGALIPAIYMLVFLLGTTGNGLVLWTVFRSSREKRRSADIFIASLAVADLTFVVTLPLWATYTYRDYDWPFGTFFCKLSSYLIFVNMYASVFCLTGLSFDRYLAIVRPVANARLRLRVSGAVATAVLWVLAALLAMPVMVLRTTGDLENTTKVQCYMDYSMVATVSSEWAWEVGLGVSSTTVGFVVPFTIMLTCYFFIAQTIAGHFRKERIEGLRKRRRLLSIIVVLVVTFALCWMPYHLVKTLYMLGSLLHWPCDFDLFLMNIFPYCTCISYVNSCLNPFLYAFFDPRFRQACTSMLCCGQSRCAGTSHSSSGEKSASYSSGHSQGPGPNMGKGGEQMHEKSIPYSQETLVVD
In short: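 Chem-5 cells stably expressing APJ, loaded 1 h with Calcium 4 dye plus 2.5 mM probenecid at 37 °C. Peptides added at final […] in HBSS/HEPES/0.1% BSA, in triplicate.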

| Structure (SMILES) | half-life [1] | EC50 (hAPJ) |
| --- | --- | --- |
| CCCC[C@@H](NC(=O)[C@@H]1CCCN1C(=O)CNC(=O)[C@H](CCCCN)NC(=O)[C@@H](Cc1ccccc1)NC(=O)[C@H](CO)NC(=O)[C@H](CC(C)C)NC(=O)[C@H](CCCNC(=N)N)NC(=O)[C@@H]1CCCN1C(=O)[C@H](CCCNC(=N)N)NC(=O)[C@@H]1CCC(=O)N1)C(=O)N[C@H](C)C(=O)N[C@H](Cc1ccccc1)C(=O)O [Example 55, pE-R-P-R-L-S-f-K-G-P-nle-a-f-OH] ([pGlu]RPRLS[dF]KGP[dNle][dA][dF]-OH) | 1.68 h | 72.8 nM |
| CCCC[C@@H](NC(=O)[C@@H]1CCCN1C(=O)CNC(=O)[C@H](CCCCN)NC(=O)[C@H](Cc1c[nH]cn1)NC(=O)[C@@H](C)NC(=O)[C@H](CC(C)C)NC(=O)[C@H](CCCNC(=N)N)NC(=O)[C@@H]1CCCN1C(=O)[C@H](CCCNC(=N)N)NC(=O)[C@@H]1CCC(=O)N1)C(=O)N[C@H](CCCNC(=N)N)C(=O)N[C@H](Cc1ccccc1)C(=O)O [Example 20, pE-R-P-R-L-a-H-K-G-P-nle-r-f-OH] ([pGlu]RPRL[dA]HKGP[dNle][dR][dF]-OH) | > 16.7 h | 922 nM |
| CCCC[C@@H](NC(=O)[C@@H]1CCCN1C(=O)CNC(=O)[C@H](CCCCN)NC(=O)[C@H](Cc1c[nH]cn1)NC(=O)[C@@H](CC)NC(=O)[C@H](CC(C)C)NC(=O)[C@H](CCCNC(=N)N)NC(=O)[C@@H]1CCCN1C(=O)[C@H](CCCNC(=N)N)NC(=O)[C@@H]1CCC(=O)N1)C(=O)N[C@H](C)C(=O)N[C@H](Cc1ccccc1)C(=O)O [Example 44, pE-R-P-R-L-abu-H-K-G-P-nle-a-f-OH] | 9.25 h | 3 nM |
| CCCC[C@H](NC(=O)[C@@H]1CCCN1C(=O)CNC(=O)[C@H](CCCCN)NC(=O)C(C)(C)NC(=O)[C@H](CO)NC(=O)[C@H](CC(C)C)NC(=O)[C@H](CCCNC(=N)N)NC(=O)[C@@H]1CCCN1C(=O)[C@H](CCCNC(=N)N)NC(=O)[C@@H]1CCC(=O)N1)C(=O)N[C@H](C)C(=O)N[C@@H](Cc1ccccc1)C(=O)O [Example 42, pE-R-P-R-L-S-Aib-K-G-P-Nle-a-F-OH] ([pGlu]RPRLS[Aib]KGP[Nle][dA]F-OH) | > 16.7 h | 2.4 nM |

Compounds with a lower EC50 (hAPJ), results first:

| half-life [1] | EC50 (hAPJ) | Structure (SMILES) |
| --- | --- | --- |
| > 16.7 h | 2.3 nM | CCCC[C@@H](NC(=O)[C@@H]1CCCCN1C(=O)CNC(=O)[C@H](CCCCN)NC(=O)[C@H](Cc1c[nH]cn1)NC(=O)[C@@H](C)NC(=O)[C@H](CC(C)C)NC(=O)[C@H](CCCNC(=N)N)NC(=O)[C@@H]1CCCN1C(=O)[C@H](CCCNC(=N)N)NC(=O)[C@@H]1CCC(=O)N1)C(=O)N[C@H](C)C(=O)N[C@H](Cc1ccccc1)C(=O)O [Example 1, pE-R-P-R-L-a-H-K-G-Pip-nle-a-f-OH] |
| > 16.7 h | 2 nM | CCCC[C@@H](NC(=O)[C@@H]1CCCN1C(=O)CNC(=O)[C@H](CCCCN)NC(=O)C(C)(C)NC(=O)[C@H](CO)NC(=O)[C@H](CC(C)C)NC(=O)[C@H](CCCNC(=N)N)NC(=O)[C@@H]1CCCN1C(=O)[C@H](CCCNC(=N)N)NC(=O)[C@@H]1CCC(=O)N1)C(=O)N[C@H](C)C(=O)N[C@H](Cc1ccccc1)C(=O)O [Example 40, pE-R-P-R-L-S-Aib-K-G-P-nle-a-f-OH] ([pGlu]RPRLS[Aib]KGP[dNle][dA][dF]-OH) |
| > 16.7 h | 1.5 nM | CC(C)C[C@H](NC(=O)[C@H](CCCNC(=N)N)NC(=O)[C@@H]1CCCN1C(=O)[C@H](CCCNC(=N)N)NC(=O)[C@@H]1CCC(=O)N1)C(=O)N[C@H](C)C(=O)N[C@@H](Cc1c[nH]cn1)C(=O)N[C@@H](CCCCN)C(=O)NCC(=O)N1CCC[C@H]1C(=O)N[C@H](Cc1ccccc1)C(=O)N[C@H](C)C(=O)N[C@H](Cc1ccccc1)C(=O)O [Example 57, pE-R-P-R-L-a-H-K-G-P-f-a-f-OH] ([pGlu]RPRL[dA]HKGP[dF][dA][dF]-OH) |
